The source of these data is the OPERA property sets (Mansouri et al. 2018).

The structures appear in SMILES notation.

The logP is the decadic logarithm of the partition coefficient of the neutral form, usually between octanol and water. On to `BrC1CC2CCC1C2` (stereo unspecified), for which the logP stood at 3.54.
Then `OC1CC2CCC1C2` (stereo unspecified), with 1.45.
Molecule `ClC1CC2CCC1C2` (stereo unspecified) showed a logP of 3.35.
As for `OC1C2CC3C1C3C2O` (stereo unspecified), the logP was -0.42.
Molecule `OC1CC2C=CC1C2` (stereo unspecified) yielded a logP of 0.99.
As to `C1=CC2C=CC1C2`, the logP turned out to be 2.67.
Then `OC1CC2CCC1C2O` (stereo unspecified), with 0.4; and `OC1C2CCC(C2)C1O` (stereo unspecified), with 0.4.
With `C1C2C3C2C2C1C32` (stereo unspecified) the figure was 2.9; with `BrC1C2CC3C(C2)C13` (stereo unspecified), 3.11; with `O=C1C2CC3C(C2)C13`, 0.81.
For `C1CC2CCC1C2`, the logP came to 3.78.
Consider `C1=CC2CCC1C2`, for which the logP was found to be 3.24.
Then `OCC1CC2CCC1C2` (stereo unspecified), with 1.99.
In the case of `C1CC2CC1C1OC21` (stereo unspecified), the logP is 1.58.
Then `OC(C1CC1)C1CC1`, with 1.07.
